The source of these data is patent US20060062866A1, “Starch-pomegranate juice complex as an HIV entry inhibitor and topical microbicide” (NEW YORK BLOOD CENTER, INC., priority 2004, published 2006).

For this assay, the target named is T1, gp120-CD4 binding (Human immunodeficiency virus type 1 group M subtype B, UniProt P03375).
T1 construct: coated with 100 ng/well of either gp120 IIIB or gp120 BaL
On the set-up: species or system HIV-1. Conditions: purified commercial compounds at 200 μg/ml. Here is the method:
CD4-HIV-1 gp120 binding and its inhibition were measured by ELISA. Wells of 96-well polystyrene plates (Immulon II, Dynatech Laboratories, Inc., Chantilly, Va.) were coated with 100 ng/well of either gp120 IIIB or gp120 BaL, and post-coated as described [Neurath, A. R., Strick, N., Li, Y. Y., Debnath, A. K.: Cellulose acetate phthalate, a common pharmaceutical excipient, inactivates HIV-1 and blocks the coreceptor binding site on the virus envelope glycoprotein gp120, BMC Infect. Dis., (2001), 1:17]. […] The wells were washed 5× with TS. Biotinyl-CD4 (1 μg/ml) in TS-1% gelatin was added to the wells for 5 hours at 37° C. After washing 1× with TS-0.1% Tween 20 and 5× with TS, horseradish peroxidase (HRP)-streptavidin (0.625 μg/ml; Amersham, Arlington Heights, Ill.) in TS-2% gelatin-0.05% Tween 20 was added. After 30 minutes at 37° C., the wells were washed 4 x with TS-0.1% Tween 20 and 2× with TS. Bound HRP-was detected using a kit from Kirkegaard and Perry Laboratories Inc. (Gaithersburg, Md.) and the absorbance (A) read at 450 nm. […] In an alternative assay, CD4 (500 ng/ml) was mixed with biotinyl-gp120 (1 μg/ml) in the presence or absence of inhibitors for 30 minutes at 20° C. Serial dilutions of the mixtures were added to wells coated with the anti-CD4 mAb OKT 4 (Ortho-Clinical Diagnostics, Rochester, N.Y.) and captured biotinyl-gp120 was detected with HRP-streptavidin as described above. To measure binding to gp120 of antibodies to gp120 peptides, the respective rabbit antisera were diluted 50-fold in a mixture of FBS and goat serum (9:1) containing 0.1% Tween 20 (pH 8.0) and added to gp120 wells. Bound IgG was detected with HRP labeled anti-rabbit IgG (Sigma, St. Louis, Mo.; 1 μg/ml in TS-10% goat serum-0.1% Tween 20). […] Briefly, FLSC (125 ng/ml) in the absence or presence of graded amounts of inhibitors was added to Cf2Th/synCCR5 cells fixed with 5% formaldehyde in wells of 96-well plates.
Consider `O=C(O)/C=C/c1ccc(O)c(O)c1` [caffeic acid], for which the “blocking of gp120-CD4 binding (ELISA)” value is recorded as “did not block”.
Turning to `O=c1c(O)c(-c2ccc(O)c(O)c2)oc2cc(O)cc(O)c12` [quercetin], the “blocking of gp120-CD4 binding (ELISA)” value is reported as “did not block”.
Under `C[C@H]1[C@H](C)CC[C@]2(C(=O)O)CC[C@]3(C)C(=CC[C@@H]4[C@@]5(C)CC[C@H](O)C(C)(C)[C@@H]5CC[C@]43C)[C@H]12` [ursolic acid] stands “did not block”; under catechin, “did not block”.
